Experimental data from US9028845B2, “Chimeric immunomodulatory compounds and methods of using the same-IV” (Dynavax Technologies Corporation, priority 2001, dated 2015).

Key:
[1] = system: mice; assay: Serum cytokines (IL-12 p40, IL-6, TNF-α) after subcutaneous injection in mice; type: in vivo; conditions: 20 ug subcutaneous, blood 2 hours later
Protocol: Blood was collected 2 hours later. For the LPS positive control group, mice were injected intraperitoneally with a 200 ul volume, and blood was collected 1.5 hours later (i.e., at the peak of LPS induced TNF-α activity). The blood was clotted and the serum was prepared and stored at −80° C. until assayed. Serum cytokines were assayed using Biosource cytoscreen kits for TNF-α and Pharmingen antibody pairs for mIL-6 and mIL-12. All samples were assayed in duplicate.

[2] = system: CD19+ B cells; assay: Human B cell proliferation assay (3H-thymidine incorporation); conditions: B cells, 2 μg/ml, Experiment B
[3] = system: mouse splenocytes; assay: Mouse splenocyte cytokine secretion (IL-6, IL-12, IFN by ELISA); type: cell-based, BALB/c mice; parameters: IFN: unit not given beside the values; conditions: 24 h
Protocol: Polynucleotides and chimeric compounds were tested for immunostimulatory activity on mouse splenocytes. Immunostimulation was assessed by measurement of cytokine secretion into the culture media. Cytokine levels in the culture supernatant were determined by enzyme-linked immunosorbent assay (ELISA) tests.
Cells were isolated and prepared using standard techniques. Spleens of 8 to 20 week-old BALB/c mice were harvested and the splenocytes isolated using standard teasing and treatment with ACK lysing buffer from BioWhittaker, Inc. Four spleens were pooled in this experiment. Isolated cells were washed in RPMI 1640 media supplemented with 2% heat-inactivated fetal calf serum (FCS), 50 μM 2-mercaptoethanol, 1% penicillin-streptomycin, and 2 mM L-glutamine and resuspended at approximately […] in 10% FCS/RPMI (RPMI 1640 media with 10% heat-inactivated FCS, 50 μM 2-mercaptoethanol, 1% penicillin-streptomycin, and 2 mM L-glutamine).
Cell cultures were set up in triplicate with approximately 7×10^5 cells/well in a 96-well flat microtiter plate in 100 μl 10% FCS/RPMI with the cells allowed to rest for at lest 1 hour after plating. The indicated test compounds were incubated (at the indicated concentrations) for 24 hours at 37° C. Cell supernatants were harvested and frozen at −80° C. Cytokine production by the cells was determined by ELISAs, as shown in 19.

[4] = system: human PBMCs; assay: Human PBMC cytokine response assay (IFN-γ and IFN-α in cell-free medium by ELISA), with or without cPLGA; type: cell-based;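 on IFN-α (pg/ml) mean: 20 µg/mL compound for 24 hours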;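 on IFN-γ (pg/ml) mean: 20 µg/mL compound for 24 hours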
[5] = Donor 5, 20 μg/ml (mixtures: 20 μg/ml total), 24 h
[6] = Donor 6, 20 μg/ml (mixtures: 20 μg/ml total), 24 h
[7] = Table 25, mean of donors 28250-28253
[8] = donor 28066, 20 ug/ml, 24 h, + PLGA = premixed with 100 μg/ml cPLGA
[9] = donor 28067, 20 ug/ml, 24 h, + PLGA = premixed with 100 μg/ml cPLGA
[10] = donor 28068, 20 ug/ml, 24 h, + PLGA = premixed with 100 μg/ml cPLGA
[11] = mean of Donors 1-2, 20 μg/ml, 24 h
[12] = mean of Donors 5-6, 20 μg/ml (mixtures: 20 μg/ml total), 24 h
[13] = mean of Donors 7-8, 20 μg/ml, 24 h
[14] = mean of donors 28065-28068, 20 ug/ml, 24 h, + PLGA = premixed with 100 μg/ml cPLGA

## 5′-AACGTT-3′ [Compound P-11]
[1]
  induction of serum IL-12 p40, IL-6 and TNF-α, in words: inactive

## 5′-TCGTCG-3′-HEG-5′-ACGTTCG-3′-HEG-5′-AGATGAT-3′ [Compound C-10]
[2]; donor 121
  cpm1: 15142 cpm
  cpm2: 14136 cpm
  cpm3: 16158 cpm
[2]; donor 121 mean
  mean cpm: 15145 cpm
[2]; donor 194
  cpm1: 7480 cpm
  cpm2: 5458 cpm
  cpm3: 5943 cpm
[2]; donor 194 mean
  mean cpm: 6294 cpm
[2]; mean of donors 121 and 194
  mean of both: 10720 cpm
[3]; dose 0.1 μg/ml
  IFN: 9
  IL-6: 9
  IL-12: 122
[3]; dose 1.0 μg/ml
  IFN: 104
  IL-6: 1761
  IL-12: 1738
[3]; dose 5.0 μg/ml
  IFN: 199
  IL-6: 3342
  IL-12: 2329
[4]; Donor 1, 20 μg/ml, 24 h
  IFN-α (pg/ml) Donor 1: 1662 pg/mL
  IFN-γ (pg/ml) Donor 1: 1595 pg/mL
[4]; Donor 2, 20 μg/ml, 24 h
  IFN-α (pg/ml) Donor 2: 50 pg/mL
  IFN-γ (pg/ml) Donor 2: 952 pg/mL
[4]; [5]
  IFN-α (pg/ml) Donor 5: 91 pg/mL
  IFN-γ (pg/ml) Donor 5: 102 pg/mL
[4]; [6]
  IFN-α (pg/ml) Donor 6: 1700 pg/mL
  IFN-γ (pg/ml) Donor 6: 806 pg/mL
[4]; Donor 7, 20 μg/ml, 24 h
  IFN-α (pg/ml) Donor 7: 46 pg/mL
  IFN-γ (pg/ml) Donor 7: 23 pg/mL
[4]; Donor 8, 20 μg/ml, 24 h
  IFN-α (pg/ml) Donor 8: 539 pg/mL
  IFN-γ (pg/ml) Donor 8: 198 pg/mL
[4]; Table 9, donor 28089
  IFN-α: 17 pg/mL
  IFN-γ: 35 pg/mL
[4]; Table 9, donor 28090
  IFN-α: 61 pg/mL
  IFN-γ: 44 pg/mL
[4]; Table 9, donor 28098
  IFN-α: 187 pg/mL
  IFN-γ: 174 pg/mL
[4]; Table 9, donor 28099
  IFN-α: 304 pg/mL
  IFN-γ: 140 pg/mL
[4]; Table 9, mean of donors
  IFN-α mean: 142 pg/mL
  IFN-γ mean: 98 pg/mL
[4]; Table 25, donor 28250
  IFN-a: 16 pg/mL
[4]; Table 25, donor 28250, polynucleotides/spacers at amounts equivalent to the CIC, spacers alone 9 uM
  IFN-g: 337 pg/mL
[4]; Table 25, donor 28251
  IFN-a: 23 pg/mL
  IFN-g: 163 pg/mL
[4]; Table 25, donor 28252
  IFN-a: 25 pg/mL
  IFN-g: 776 pg/mL
[4]; Table 25, donor 28253
  IFN-a: 124 pg/mL
  IFN-g: 898 pg/mL
[4]; [7]
  IFN-a mean: 47 pg/mL
  IFN-g mean: 544 pg/mL
[4]; donor 28065 (high background), 20 ug/ml, 24 h, + PLGA = premixed with 100 μg/ml cPLGA, 1000 = outside assay limits
  IFN-γ (pg/ml) 28065: 1000 pg/mL
[4]; donor 28065, 20 ug/ml, 24 h, + PLGA = premixed with 100 μg/ml cPLGA
  IFN-α (pg/ml) 28065: 116 pg/mL
[4]; [8]
  IFN-α (pg/ml) 28066: 6 pg/mL
  IFN-γ (pg/ml) 28066: 9 pg/mL
[4]; [9]
  IFN-α (pg/ml) 28067: 107 pg/mL
  IFN-γ (pg/ml) 28067: 51 pg/mL
[4]; [10]
  IFN-α (pg/ml) 28068: 340 pg/mL
  IFN-γ (pg/ml) 28068: 559 pg/mL
[4]; [11]
  IFN-α (pg/ml) mean: 856 pg/mL
  IFN-γ (pg/ml) mean: 1273 pg/mL
[4]; [12]
  IFN-α (pg/ml) mean: 896 pg/mL
  IFN-γ (pg/ml) mean: 454 pg/mL
[4]; [13]
  IFN-α (pg/ml) mean: 293 pg/mL
  IFN-γ (pg/ml) mean: 111 pg/mL
[4]; [14]
  IFN-α (pg/ml) mean: 142 pg/mL
  IFN-γ (pg/ml) mean: 405 pg/mL
[4]; used alone (no cPLGA)
  immunomodulatory activity (IFN-γ / IFN-α secretion), in words: did have immunomodulatory activity
